Experiment [1] has as its target T1, hTAS1R2 + hTAS1R3 H721A^ex2 (Homo sapiens, UniProt Q7RTX0+Q8TE23, H721A).
T1 construct: expressed in transfected cells; host or cells: HEK293T cells stably expressing G16Gust44
T1 sequence (Q8TE23 20-839): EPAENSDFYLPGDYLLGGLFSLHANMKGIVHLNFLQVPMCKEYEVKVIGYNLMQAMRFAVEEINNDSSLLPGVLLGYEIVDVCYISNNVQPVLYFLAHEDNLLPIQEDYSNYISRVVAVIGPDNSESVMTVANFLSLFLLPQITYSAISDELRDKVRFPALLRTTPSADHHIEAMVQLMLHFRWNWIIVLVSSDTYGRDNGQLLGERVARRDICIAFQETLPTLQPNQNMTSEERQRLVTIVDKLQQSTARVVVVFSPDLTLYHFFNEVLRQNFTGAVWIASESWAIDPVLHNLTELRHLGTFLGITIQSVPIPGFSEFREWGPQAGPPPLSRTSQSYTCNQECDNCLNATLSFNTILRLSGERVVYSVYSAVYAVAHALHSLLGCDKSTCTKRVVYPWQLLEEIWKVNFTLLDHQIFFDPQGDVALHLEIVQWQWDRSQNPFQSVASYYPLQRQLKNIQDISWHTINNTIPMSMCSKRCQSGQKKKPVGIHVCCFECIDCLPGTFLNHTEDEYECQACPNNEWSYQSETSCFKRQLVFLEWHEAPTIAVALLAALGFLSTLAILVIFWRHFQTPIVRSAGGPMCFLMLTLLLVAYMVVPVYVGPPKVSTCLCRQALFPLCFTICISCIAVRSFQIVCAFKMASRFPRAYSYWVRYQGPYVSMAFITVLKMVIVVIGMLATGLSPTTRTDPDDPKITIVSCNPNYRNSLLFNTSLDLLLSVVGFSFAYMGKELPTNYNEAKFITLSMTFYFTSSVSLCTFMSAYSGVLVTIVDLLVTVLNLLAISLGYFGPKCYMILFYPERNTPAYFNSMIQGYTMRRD
T1 sequence (Q7RTX0 21-852 H721A): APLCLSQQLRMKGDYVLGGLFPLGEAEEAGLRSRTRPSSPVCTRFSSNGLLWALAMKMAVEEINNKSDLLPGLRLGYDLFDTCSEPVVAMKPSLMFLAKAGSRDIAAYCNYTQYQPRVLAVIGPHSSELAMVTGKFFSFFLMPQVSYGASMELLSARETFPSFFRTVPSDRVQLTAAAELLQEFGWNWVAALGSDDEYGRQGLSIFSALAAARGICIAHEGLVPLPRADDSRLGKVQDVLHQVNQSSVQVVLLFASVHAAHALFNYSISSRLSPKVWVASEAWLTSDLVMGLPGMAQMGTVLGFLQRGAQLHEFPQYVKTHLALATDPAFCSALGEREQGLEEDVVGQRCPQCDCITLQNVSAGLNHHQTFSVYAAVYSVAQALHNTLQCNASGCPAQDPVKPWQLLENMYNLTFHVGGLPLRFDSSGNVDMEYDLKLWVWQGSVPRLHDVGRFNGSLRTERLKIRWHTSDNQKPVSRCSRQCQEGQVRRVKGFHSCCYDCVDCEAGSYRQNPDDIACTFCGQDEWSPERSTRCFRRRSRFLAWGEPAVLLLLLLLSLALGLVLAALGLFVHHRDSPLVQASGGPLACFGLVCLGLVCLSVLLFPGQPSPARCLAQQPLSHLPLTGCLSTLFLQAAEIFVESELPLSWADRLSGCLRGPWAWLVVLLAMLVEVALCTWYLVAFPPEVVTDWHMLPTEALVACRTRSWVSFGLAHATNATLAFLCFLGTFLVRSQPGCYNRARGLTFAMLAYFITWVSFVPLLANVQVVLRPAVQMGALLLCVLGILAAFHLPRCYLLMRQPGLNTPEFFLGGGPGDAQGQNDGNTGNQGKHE
Nature of the experiment: Calcium response (FLIPR), hTAS1R3 mutant coexpressed with hTAS1R2. The class given is cell-based. The note with it: variant H721A^ex2; for Emax: read-out: maximal signal (% of wt). A digest of the protocol: (§1)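 Calcium mobilization was measured by FLIPR in Fluo4-AM-loaded HEK293T cells coexpressing G16Gust44 with the tagged receptor pair. Signals had mock responses removed and were given as ΔF/F.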

The target of experiment [2] is T2, hTAS1R2 + hTAS1R3 L800F^7.38 (Homo sapiens, UniProt Q7RTX0+Q8TE23, L800F).
T2 construct: expressed in transfected cells; host or cells: HEK293T cells stably expressing G16Gust44
T2 sequence (Q7RTX0 21-852 L800F): T1 sequence (Q7RTX0 21-852 H721A) with A701H, L780F
T2 sequence (Q8TE23 20-839): T1 sequence (Q8TE23 20-839)
The description is as above. The experiment is classed as cell-based. As to conditions: variant L800F^7.38; for Emax: read-out: maximal signal (% of wt). A digest of the protocol: as §1

Changes are numbered by the printed parent chain. Where a SMILES comes first, the peptide text is derived from it.

Consider `COc1ccc(CCC(=O)c2c(O)cc(O[C@@H]3O[C@H](CO)[C@@H](O)[C@H](O)[C@H]3O[C@@H]3O[C@@H](C)[C@H](O)[C@@H](O)[C@H]3O)cc2O)cc1O` [NHDC, neohesperidin dihydrochalcone], for which, in experiment [1], the EC50 (as a rule, the concentration at which the effect is half-maximal) came to 800 ± 300 µM and the Emax came to 66 ± 10%. Besides, in experiment [2], the EC50 was found to be 200 ± 100 µM and the Emax stood at 91 ± 70%.
Consider `COC(=O)[C@H](Cc1ccccc1)NC(=O)[C@@H](N)CC(=O)O` [aspartame] (HELM PEPTIDE1{D.F.[CO[*:1]]}$$$$V2.0), for which, in experiment [1], the EC50 is 1600 ± 300 µM and the Emax turned out to be 60 ± 40%. Further, in experiment [2], the EC50 amounted to 1200 ± 300 µM and the Emax was 90 ± 1%.

Source of the values: publication PMC2099433, “The binding site for neohesperidin dihydrochalcone at the human sweet taste receptor” (BMC Structural Biology, 2007).
